Laboratory results reported in PubChem BioAssay (NCI).
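Dose response: 5 concentrations. Exposure: 48 h. Format: 96-well plates. Endpoint: linear interpolation; highest concentration if not reached. GI50: concentration for 50% inhibition of growth. At the TGI there is no net growth.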

Experiments:
Assay in all cases: NCI tumour cell line growth inhibition, 48 h; in the data active = GI50 below about 0.43 µM; inactive = the rest
COLO 205 colon = tested on: COLO 205 colon
HOP-92 NSCLC = tested on: HOP-92 NSCLC
SF-268 CNS = tested on: SF-268 CNS
TK-10 renal = tested on: TK-10 renal
NCI-H226 lung = tested on: NCI-H226 lung
SK-MEL-5 melanoma = tested on: SK-MEL-5 melanoma
NCI/ADR-RES ovarian = tested on: NCI/ADR-RES ovarian
SF-539 CNS = tested on: SF-539 CNS
HL-60(TB) leukemia = tested on: HL-60(TB) leukemia
SF-295 CNS = tested on: SF-295 CNS
RXF 393 renal = tested on: RXF 393 renal
SK-MEL-2 melanoma = tested on: SK-MEL-2 melanoma
HS 578T breast = tested on: HS 578T breast
UO-31 renal = tested on: UO-31 renal
A498 renal = tested on: A498 renal
HCC-2998 colon = tested on: HCC-2998 colon
SN12C renal = tested on: SN12C renal
MCF7 breast = tested on: MCF7 breast
M14 melanoma = tested on: M14 melanoma
MALME-3M melanoma = tested on: MALME-3M melanoma
UACC-62 melanoma = tested on: UACC-62 melanoma
786-0 renal = tested on: 786-0 renal
HOP-62 NSCLC = tested on: HOP-62 NSCLC
SR leukemia = tested on: SR leukemia
U251 CNS = tested on: U251 CNS
OVCAR-3 ovarian = tested on: OVCAR-3 ovarian
OVCAR-4 ovarian = tested on: OVCAR-4 ovarian
CCRF-CEM leukemia = tested on: CCRF-CEM leukemia
DU-145 prostate = tested on: DU-145 prostate
BT-549 breast = tested on: BT-549 breast
SK-OV-3 ovarian = tested on: SK-OV-3 ovarian
CAKI-1 renal = tested on: CAKI-1 renal
HCT-15 colon = tested on: HCT-15 colon
PC-3 prostate = tested on: PC-3 prostate
T-47D breast = tested on: T-47D breast
LOX IMVI melanoma = tested on: LOX IMVI melanoma
NCI-H23 lung = tested on: NCI-H23 lung
K-562 leukemia = tested on: K-562 leukemia
MDA-MB-231 breast = tested on: MDA-MB-231 breast
ACHN renal = tested on: ACHN renal
A549 NSCLC = tested on: A549 NSCLC
SNB-75 CNS = tested on: SNB-75 CNS
MOLT-4 leukemia = tested on: MOLT-4 leukemia
NCI-H522 lung = tested on: NCI-H522 lung
RPMI-8226 leukemia = tested on: RPMI-8226 leukemia
HCT-116 colon = tested on: HCT-116 colon
HT29 colon = tested on: HT29 colon
SK-MEL-28 melanoma = tested on: SK-MEL-28 melanoma
OVCAR-5 ovarian = tested on: OVCAR-5 ovarian
KM12 colon = tested on: KM12 colon
IGROV1 ovarian = tested on: IGROV1 ovarian
SW-620 colon = tested on: SW-620 colon
NCI-H460 lung = tested on: NCI-H460 lung
EKVX NSCLC = tested on: EKVX NSCLC
UACC-257 melanoma = tested on: UACC-257 melanoma
MDA-MB-435 = tested on: MDA-MB-435
OVCAR-8 ovarian = tested on: OVCAR-8 ovarian
SNB-19 CNS = tested on: SNB-19 CNS

COc1ccc([C@H]2[C@H](O)C(=O)N2c2cc(OC)c(OC)c(OC)c2)cc1Cl
> 87200 nM: TGI (SR leukemia)
> 43100 nM: TGI (CAKI-1 renal)
inactive: GI50 (HOP-92 NSCLC) 828 nM | GI50 (TK-10 renal) > 100000 nM | GI50 (A498 renal) > 59800 nM | GI50 (OVCAR-4 ovarian) 442 nM | GI50 (T-47D breast) > 38400 nM
> 100000 nM: TGI (HOP-92 NSCLC) | TGI (SF-268 CNS) | TGI (TK-10 renal) | TGI (SF-295 CNS) | TGI (RXF 393 renal) | TGI (SK-MEL-2 melanoma) | TGI (HS 578T breast) | TGI (UO-31 renal) | TGI (A498 renal) | TGI (SN12C renal) | TGI (MCF7 breast) | TGI (M14 melanoma) | TGI (MALME-3M melanoma) | TGI (UACC-62 melanoma) | TGI (786-0 renal) | TGI (HOP-62 NSCLC) | TGI (U251 CNS) | TGI (OVCAR-4 ovarian) | TGI (CCRF-CEM leukemia) | TGI (DU-145 prostate) | TGI (SK-OV-3 ovarian) | TGI (HCT-15 colon) | TGI (PC-3 prostate) | TGI (T-47D breast) | TGI (LOX IMVI melanoma) | TGI (NCI-H23 lung) | TGI (K-562 leukemia) | TGI (MDA-MB-231 breast) | TGI (ACHN renal) | TGI (A549 NSCLC) | TGI (SNB-75 CNS) | TGI (MOLT-4 leukemia) | TGI (SK-MEL-28 melanoma) | TGI (OVCAR-5 ovarian) | TGI (KM12 colon) | TGI (IGROV1 ovarian) | TGI (SW-620 colon) | TGI (EKVX NSCLC) | TGI (UACC-257 melanoma) | TGI (SNB-19 CNS)
> 35400 nM: TGI (RPMI-8226 leukemia)
718 nM: TGI (BT-549 breast)
36.5 nM: TGI (SK-MEL-5 melanoma)
> 62600 nM: TGI (HCT-116 colon)
50500 nM: TGI (NCI-H226 lung)
< 10.4 nM: TGI (MDA-MB-435)
< 22.5 nM: TGI (COLO 205 colon)
active: GI50 (COLO 205 colon) < 14.9 nM | GI50 (SF-268 CNS) < 24.1 nM | GI50 (NCI-H226 lung) < 10 nM | GI50 (SK-MEL-5 melanoma) < 10 nM | GI50 (NCI/ADR-RES ovarian) < 13.6 nM | GI50 (SF-539 CNS) < 10 nM | GI50 (HL-60(TB) leukemia) < 10 nM | GI50 (SF-295 CNS) < 10 nM | GI50 (RXF 393 renal) < 10 nM | GI50 (SK-MEL-2 melanoma) 31.9 nM | GI50 (HS 578T breast) < 15.8 nM | GI50 (UO-31 renal) < 19.2 nM | GI50 (HCC-2998 colon) < 18.8 nM | GI50 (SN12C renal) < 10 nM | GI50 (MCF7 breast) < 10 nM | GI50 (M14 melanoma) < 12.8 nM | GI50 (MALME-3M melanoma) < 14.9 nM | GI50 (UACC-62 melanoma) < 10 nM | GI50 (786-0 renal) < 15.5 nM | GI50 (HOP-62 NSCLC) < 11.4 nM | GI50 (SR leukemia) < 10 nM | GI50 (U251 CNS) 18.6 nM | GI50 (OVCAR-3 ovarian) < 10 nM | GI50 (CCRF-CEM leukemia) < 10 nM | GI50 (DU-145 prostate) < 12.8 nM | GI50 (BT-549 breast) < 12.5 nM | GI50 (SK-OV-3 ovarian) < 18.7 nM | GI50 (CAKI-1 renal) < 10 nM | GI50 (HCT-15 colon) < 11.8 nM | GI50 (PC-3 prostate) < 16.8 nM | GI50 (LOX IMVI melanoma) < 10 nM | GI50 (NCI-H23 lung) 10.6 nM | GI50 (K-562 leukemia) < 10 nM | GI50 (MDA-MB-231 breast) < 16.1 nM | GI50 (ACHN renal) < 10 nM | GI50 (A549 NSCLC) < 14.1 nM | GI50 (SNB-75 CNS) < 10 nM | GI50 (MOLT-4 leukemia) < 17 nM | GI50 (NCI-H522 lung) < 10 nM | GI50 (RPMI-8226 leukemia) < 11.2 nM | GI50 (HCT-116 colon) < 10 nM | GI50 (HT29 colon) < 10 nM | GI50 (SK-MEL-28 melanoma) < 43.4 nM | GI50 (OVCAR-5 ovarian) < 12 nM | GI50 (KM12 colon) < 11.3 nM | GI50 (IGROV1 ovarian) < 11.1 nM | GI50 (SW-620 colon) < 10 nM | GI50 (NCI-H460 lung) < 12.7 nM | GI50 (MDA-MB-435) < 10 nM | GI50 (OVCAR-8 ovarian) < 14.1 nM | GI50 (SNB-19 CNS) < 24.1 nM
< 10.5 nM: TGI (NCI-H522 lung)
